Results on 24 compounds are retold here after ChEMBL document CHEMBL1133280, “Discovery and synthesis of a potent sulfonamide ET(B) selective antagonist” (Bioorg Med Chem Lett, 2000).

Test [1] addresses T1, Endothelin receptor type B (Sus scrofa, UniProt P35463).
T1 sequence (P35463 whole entry): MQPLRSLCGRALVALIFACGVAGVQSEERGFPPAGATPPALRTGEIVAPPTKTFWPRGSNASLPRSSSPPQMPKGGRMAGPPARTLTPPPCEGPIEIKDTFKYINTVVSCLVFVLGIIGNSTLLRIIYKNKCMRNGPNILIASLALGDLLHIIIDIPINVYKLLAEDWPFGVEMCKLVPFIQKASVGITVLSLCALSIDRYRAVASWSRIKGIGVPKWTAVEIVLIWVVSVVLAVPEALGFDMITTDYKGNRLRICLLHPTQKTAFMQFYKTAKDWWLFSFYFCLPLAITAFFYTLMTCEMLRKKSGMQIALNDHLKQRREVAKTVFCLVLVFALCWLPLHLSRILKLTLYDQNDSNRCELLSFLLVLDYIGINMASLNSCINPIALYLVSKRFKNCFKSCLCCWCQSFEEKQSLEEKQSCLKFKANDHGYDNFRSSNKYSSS
Kind of test: Binding affinity towards displacement of [125 I] ET-3 from COS-7 cells transfected with porcine Endothelin B receptor. The class given is cell-based.

The next test deals with T2, Endothelin-1 receptor (Rattus norvegicus, UniProt P26684).
T2 sequence (P26684 whole entry): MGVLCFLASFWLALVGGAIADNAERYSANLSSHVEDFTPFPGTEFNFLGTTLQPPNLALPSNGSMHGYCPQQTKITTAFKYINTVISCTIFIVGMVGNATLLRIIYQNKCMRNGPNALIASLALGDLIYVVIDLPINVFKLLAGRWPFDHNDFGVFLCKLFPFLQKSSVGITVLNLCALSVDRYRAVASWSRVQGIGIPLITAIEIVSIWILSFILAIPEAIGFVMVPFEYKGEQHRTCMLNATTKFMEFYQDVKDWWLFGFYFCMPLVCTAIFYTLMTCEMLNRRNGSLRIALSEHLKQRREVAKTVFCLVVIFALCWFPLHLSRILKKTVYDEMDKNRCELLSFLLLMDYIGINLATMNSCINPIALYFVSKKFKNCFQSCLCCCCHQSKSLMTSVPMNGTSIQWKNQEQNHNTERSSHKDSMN
Kind of test: Displacement of [125 I] ET-1 from rat aortic smooth muscle A7r5 cells transfected with Endothelin A receptor. The class given is cell-based.

A short description of test [2]: Ratio of IC50 of rat ETA receptor to that of porcine ETB receptor.

For orientation: IC50 means the concentration needed to halve the response being measured. Read a high IC50 as a need for much substance.

For `COc1cccc(Sc2c(NS(=O)(=O)c3ccc(C(C)(C)C)cc3)noc2CCCCC=O)c1`, the half-maximal inhibitory concentration (IC50) came to 0.02 µM in test [1] and 1.4 µM at Endothelin-1 receptor. In addition, the Ratio in test [2] worked out at 70.
At Endothelin-1 receptor, `Cc1onc(NS(=O)(=O)c2ccc(N)cc2)c1Cl` returned a 50% inhibitory concentration (IC50) of 3.5 µM.
As to `Cc1nsc(NS(=O)(=O)c2ccc(C(C)(C)C)cc2)c1C`, the 50% inhibitory concentration (IC50) at Endothelin-1 receptor was > 500 µM.
For `COc1cccc(Sc2c(NS(=O)(=O)c3ccc(C(C)(C)C)cc3)noc2CCCC#N)c1`, the IC50 in test [1] was 0.52 µM; at Endothelin-1 receptor it was 1.3 µM. Further, the Ratio in test [2] stood at 2.5.
On to `COc1cccc(Sc2c(NS(=O)(=O)c3ccc(C(C)(C)C)cc3)noc2CCO)c1`, for which the results for the IC50 (in test [1]; at Endothelin-1 receptor) were 0.43 µM and 0.77 µM, respectively. The Ratio in test [2] was 1.8.
In the case of `CSc1c(NS(=O)(=O)c2ccc(C(C)(C)C)cc2)noc1C`, the half-inhibitory concentration (IC50) in test [1] was 35 µM; on Endothelin-1 receptor, > 100 µM.
Turning to `CCc1onc(NS(=O)(=O)c2ccc(C(C)(C)C)cc2)c1Sc1cccc(OC)c1`, the IC50 in test [1] is 2.8 µM; on Endothelin-1 receptor it was 0.8 µM. For the same compound, the Ratio in test [2] came to 0.3.
As to `COc1cccc(Sc2c(NS(=O)(=O)c3ccc(C(C)(C)C)cc3)noc2CCCC=O)c1`, the results for the IC50 (in test [1]; on Endothelin-1 receptor) were 0.002 µM and 1.7 µM, respectively. In addition, the Ratio in test [2] stood at 850.
For the compound `Cc1onc(NS(=O)(=O)c2ccc(C(C)(C)C)cc2)c1C`, the IC50 at Endothelin-1 receptor amounted to 28 µM. That is a double-digit micromolar value.
Turning to `COc1cccc(Sc2c(NS(=O)(=O)c3ccc(C(C)(C)C)cc3)noc2CCCC(C)=O)c1`, the IC50 was determined as 0.4 µM in test [1] and 1.3 µM at Endothelin-1 receptor. Also, the Ratio in test [2] was determined as 3.3.
As for `Cc1onc(NS(=O)(=O)c2ccc(N)cc2)c1Cc1ccccc1`, at Endothelin-1 receptor, the IC50 turned out to be 71 µM.
Take `Cc1onc(NS(=O)(=O)c2ccc(C(C)(C)C)cc2)c1I`: the IC50 is 30 µM in test [1] and > 100 µM on Endothelin-1 receptor.
With `COc1cccc(Sc2c(NS(=O)(=O)c3ccc(C(C)(C)C)cc3)noc2CCCC(=O)O)c1`, the IC50 in test [1] was 0.5 µM. For the same compound, in test [2], the Ratio stood at 8.6.
Regarding `COc1cccc(Sc2c(NS(=O)(=O)c3ccc(C(C)(C)C)cc3)noc2CCCO)c1`, the IC50 in test [1] came to 0.14 µM; at Endothelin-1 receptor it was 0.32 µM. The Ratio in test [2] is 2.3.
Take `COc1cccc(Sc2c(NS(=O)(=O)c3ccc(C(C)(C)C)cc3)noc2C)c1`: the IC50 was 0.3 µM in test [1] and 0.53 µM on Endothelin-1 receptor. The Ratio in test [2] turned out to be 1.8.
Turning to `COc1cccc(Sc2c(NS(=O)(=O)c3ccc(C(C)(C)C)cc3)noc2CCCC(N)=O)c1`, the IC50 stood at 0.24 µM in test [1] and 6.3 µM on Endothelin-1 receptor. Also, in test [2], the Ratio turned out to be 26.
For the compound `COc1cccc(Sc2c(NS(=O)(=O)c3ccc(C(C)(C)C)cc3)noc2CO)c1`, the half-inhibitory concentration (IC50) in test [1] is 0.56 µM; on Endothelin-1 receptor, 6.2 µM. Further, the Ratio in test [2] came out at 11.
The matching figures for `COc1cccc(Sc2c(NS(=O)(=O)c3ccc(C(C)(C)C)cc3)noc2CCCCO)c1`: 0.24 µM, 0.63 µM and 2.6.
`CCc1c(NS(=O)(=O)c2ccc(N)cc2)noc1C` showed a half-maximal inhibitory concentration (IC50) on Endothelin-1 receptor of 3.4 µM. This lies in the single-digit micromolar range.
On Endothelin-1 receptor, `Cc1snc(NS(=O)(=O)c2ccc(N)cc2)c1C` gave a 50% inhibitory concentration (IC50) of 28 µM.
With `Cc1onc(NS(=O)(=O)c2ccc(N)cc2)c1I`, the concentration for half-maximal inhibition (IC50) in test [1] is > 1000 µM; at Endothelin-1 receptor it was 11 µM.
Consider `COc1cccc(Sc2c(NS(=O)(=O)c3ccc(C(C)(C)C)cc3)noc2CCC/C=N/O)c1`, for which the half-inhibitory concentration (IC50) in test [1] was determined as 0.085 µM; on Endothelin-1 receptor, 1.5 µM. Also, the Ratio in test [2] was 18.
Consider `COC(=O)CCCc1onc(NS(=O)(=O)c2ccc(C(C)(C)C)cc2)c1Sc1cccc(OC)c1`, for which the results for the IC50 (in test [1]; at Endothelin-1 receptor) were 0.31 µM and 0.4 µM, respectively. The Ratio in test [2] amounted to 1.3.
For the compound `COc1cccc(Sc2c(NS(=O)(=O)c3ccc(C(C)(C)C)cc3)noc2CCC=O)c1`, the half-inhibitory concentration (IC50) in test [1] is 0.5 µM; on Endothelin-1 receptor, 0.38 µM. The Ratio in test [2] was 0.8.
